Measured values as given in patent US20120322150A1, “Mechanism and Method for Regulating Glycogen Synthase Kinase 3 (GSK3)-Related Kinases” (CARNEGIE INSTITUTION OF WASHINGTON, priority 2009, published 2012).
Peptide text beside a SMILES is read from it. * marks the point of attachment. Cbz = O=C(OCc1ccccc1)*

Assays:
BIN2 [1] = assay: Immunoblotting of 2-DE of TAP-BIN2 from BL-treated plants; type: in vivo, Arabidopsis; details: 0.25 μM BL, 2 hrs, TAP-BIN2 transgenic plants
Source text: Total proteins were extracted from BL-treated or untreated 35S::TAP-BIN2 plants for two-dimensional gel electrophoresis (2-DE) as described previously. The amount of BL-treated and untreated TAP-BIN2 proteins was normalized with Western blot. Equal amount of TAP-BIN2 proteins was separated by 2-DE using an immobilized pH gradient gel strip (7 cm, pH 3-10 non-linear) and 7.5% SDS-PAGE gel. The blots were probed with anti-PAP antibody (Sigma, St. Louis, Mo.).

BIN2 [2] = molecular target: T1, BIN2 (Arabidopsis thaliana, UniProt Q39011); assay: In vitro BIN2 inhibition assay (BIN2 phosphorylation of BZR1); type: biochemical; details: BSU1-YFP immunoprecipitated from plants treated with BL versus untreated plants
T1 construct: made in house; host or cells: E. coli
T1 sequence (Q39011 1-380): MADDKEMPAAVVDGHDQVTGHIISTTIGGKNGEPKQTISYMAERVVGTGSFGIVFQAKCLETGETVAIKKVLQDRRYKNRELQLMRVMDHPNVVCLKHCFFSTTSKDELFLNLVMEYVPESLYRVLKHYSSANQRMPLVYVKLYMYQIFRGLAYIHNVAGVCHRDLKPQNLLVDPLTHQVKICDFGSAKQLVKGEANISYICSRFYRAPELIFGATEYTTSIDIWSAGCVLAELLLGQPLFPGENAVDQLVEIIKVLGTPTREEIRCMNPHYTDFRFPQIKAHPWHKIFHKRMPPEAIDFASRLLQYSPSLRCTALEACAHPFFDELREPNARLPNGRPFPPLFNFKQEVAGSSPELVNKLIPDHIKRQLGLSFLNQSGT
Method: In vitro BIN2 inhibition assays were performed by 3 hrs co-incubation of MBP-BZR1, GST BIN2, GST BSU1 and ^32P-γATP or pre-incubation of GST-BIN2 with GST-BSU1 for various time followed by adding MBP-BZR1 and 32P-γATP. The examine activities of partial BSU1, N-terminal Kelch (1-363th amino acid) and C-terminal phosphatase (364-793th amino acid) region were used. GST, GST-BSU1, GSTBSU1-Ketch and GST-BSU1-phosphatase were pre-incubated with GST-BIN2 for 1 hr, and further incubated with MBP-BZR1 and ^32P-γATP for 3 hrs.
To test activities of BSU1-YFP, anti-GFP antibody-Protein A beads were used to immunoprecipitate BSU1-YFP from extracts of BSU1-YFP transgenic plants, and non-transgenic wild type plants were used as control. The beads were incubated with GST-BIN2 or GST bin2-1 for 1 hr, and then the beads were removed. The BSU1-treated GST-BIN2 or GST-bin2-1 was further incubated with MBP-BZR1 and ^32P-γATP for 3 hrs.

BIN2 [3] = assay: pTyr200 of BIN2 in plants after BL treatment; type: in vivo, Arabidopsis; details: in the presence of MG132; 0.2 or 0.25 μM BL
Method: (§1) Plant materials were ground with liquid nitrogen and resuspended in IP buffer (50 mM Tris, pH 7.5, 150 mM NaCl, 5% Glycerol, 1% Triton X-100, 1 mM PMSF and 1× protease inhibitor cocktail (Sigma)). Filtered protein extracts were centrifuged at 20,000 g for 10 min and resulting supernatant was incubated with anti-GFP antibody bound Protein A beads or anti-myc agarose beads for 1 hr. Beads were washed 5 times with washing buffer (50 MM Tris, pH 7.5, 150 mM NaCl, 0.2% Triton X-100, 1 mM PMSF and 1× Protease inhibitor cocktail). The beads were resuspended with a small volume of kinase buffer (20 mM Tris, pH 7.5, 1 mM MgCl2, 100 mM NaCl and) mM DTT) and used for in vitro phosphatase assays, or immunoprecipitated proteins were eluted with buffer containing 2% SDS and analyzed by SDS-PAGE and immunoblotting.
GST-BIN2 or GST-bin2-1 was incubated with MBP-BSU1 or BSU1-YFP beads for 3 Ins and subjected to immunoblotting. pTyr200 residue of BIN2 was detected by anti-phospho-GSK3a/f3 (Tyr279/216) monoclonal antibody, 5G-2F (Millipore, Temecula, Calif.) and re-probed with HRP conjugated anti-GST antibody (Santa Cruz Biotechnology, Santa Cruz, Calif.). The det2 plants were treated with 0.2 μM BL after 1 hr incubation with 10 μM MG 132. AntiBIN2 serum was developed in rabbits using GST-BIN2 as an immunogen. Monoclonal anti-GSK3α/β antibody was purchased from Invitrogen (Carlsbad, Calif.).

BIN2 [4] = assay: BIN2-myc / bin2-1-myc protein level in transformed tobacco leaves; type: in vivo; details: 1 μM BL for 1 hr
Method: Transformation by Agrobacterium infiltration, observations of subcellular localization and BiFC signal in tobacco or Arabidopsis were performed as described previously 5. Fluorescence of YFP was visualized by using a spinning-disk confocal microscope (Leica Microsystems, Heerbruag, Germany).

BIN2 [5] = assay: BIN2-myc / bin2-1-myc degradation in transgenic plants; type: in vivo, Arabidopsis
Method: as §1

AtSK12 [6] = assay: AtSK12 protein accumulation in transgenic plants; type: in vivo, Arabidopsis; design: dose or concentration left out as unconfirmed; details: AtSK12-myc plants; BRZ medium for 5 days; BL for 30 min
Method: as §1

AtSK12 [7] = assay: pTyr dephosphorylation of AtSK12 in plants; type: in vivo, Arabidopsis; details: 10 μM MG132 then 0.25 μM BL
Method: as §1

BSU1 and BIN2 = assay: Co-immunoprecipitation of BSU1-YFP and BIN2-myc after BL treatment; type: in vivo, Arabidopsis; details: plants grown on BRZ, 10 μM MG-132 1 hr, 0.2 μM BL 15 min
Method: as §1

BIN2 [8] = molecular target: T1, BIN2; assay: PP1 dephosphorylation of GST-tagged BIN2; type: biochemical; details: PP1 purified from E. coli
Method: (§2) It was next examined whether the mammalian homolog to BSU1, PP1, would dephosphorylate BIN2. A GST-tagged BIN2 was isolated from cells and incubated with PP1 purified from E. coli cells expressing the phosphatase.

PP1 = molecular target: T2, PP1 (Homo sapiens, UniProt P36873); assay: Inhibition of PP1 activity on BIN2; type: biochemical, mammalian
T2 construct: made in house; host or cells: E. coli
T2 sequence (P36873 whole entry): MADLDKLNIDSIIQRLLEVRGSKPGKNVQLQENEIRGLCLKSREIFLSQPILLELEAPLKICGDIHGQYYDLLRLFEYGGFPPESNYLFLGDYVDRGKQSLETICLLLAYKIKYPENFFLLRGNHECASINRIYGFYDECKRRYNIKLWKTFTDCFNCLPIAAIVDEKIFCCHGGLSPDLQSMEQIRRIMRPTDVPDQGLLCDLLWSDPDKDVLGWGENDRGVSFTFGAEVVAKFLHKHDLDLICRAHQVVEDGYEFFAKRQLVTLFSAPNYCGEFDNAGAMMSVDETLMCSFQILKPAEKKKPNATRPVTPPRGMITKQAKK
Method: as §2

Molecule: CC(C)[C@H](C)[C@@H](O)[C@H](O)[C@@H](C)[C@H]1CC[C@H]2[C@@H]3COC(=O)[C@H]4C[C@H](O)[C@H](O)C[C@]4(C)[C@H]3CC[C@]12C [BL, brassinolide]
- phosphorylation forms of epitope-tagged BIN2 protein (BIN2 [1]): caused disappearance of the acidic forms and an increase of the basic forms
- BIN2-inhibiting activity of BSU1-YFP from BL-treated plants (BIN2 [2]): more effective inhibition of BIN2 phosphorylation of BZR1
- phosphorylation of Tyr200 of wild type BIN2 or BIN2-myc in plants (BIN2 [3]): reduced the phosphorylation of Tyr200
- level of BIN2 and bin2-1 proteins (BIN2 [4]): reduces the level of BIN2 but not bin2-1 proteins
- degradation of BIN2 and bin2-1 (BIN2 [5]; transgenic plants, 0.25 μM BL for 30 min): induces degradation of BIN2 but not bin2-1
- AtSK12 protein stability (AtSK12 [6]): destabilized
- phosphorylation of AtSK12 Tyr233 (AtSK12 [7]): greatly reduced phosphorylation of AtSK12 Tyr233
- interaction of BSU1 and BIN2 (BSU1 and BIN2): BR-induced interaction of BSU1 and BIN2

Molecule: CC(C)C[C@@H](C=O)NC(=O)[C@H](CC(C)C)NC(=O)[C@H](CC(C)C)NC(=O)OCc1ccccc1 [MG132] (Cbz-Leu-Leu-Leu-aldehyde)
- BR-induced BIN2 depletion (BIN2 [5]; proteasome inhibitor, 10 μM): prevents BR-induced BIN2 depletion

Molecule: CC(O)(c1ccccc1)C(Cc1ccc(Cl)cc1)n1cncn1 (stereo not drawn) [brassinazole]
- AtSK12 protein stability (AtSK12 [6]): stabilized

Molecule: PP1: mammalian homolog to BSU1, protein phosphatase-1, purified from E. coli
- dephosphorylation of BIN2 tyrosine200 (BIN2 [8]): increased dephosphorylation of BIN2 tyrosine200

Molecule: manganese chloride
- enzymatic activity of PP1 on BIN2 (PP1): also inhibited the enxymatic activity of PP1 on BIN2
